Source: PubChem BioAssay AID256 (DTP/NCI, 2004)
Several values for one entry are separate records, joined by “and”; a condition that tells them apart may be missing. Equal values may be shown once. Toxic doses and inconclusive results are not listed.

Tested on: CD2F1 mice, L1210 leukemia ip, survival T/C
Assay: NCI In Vivo Anticancer Drug Screen. Data for tumor model L1210 Leukemia (intraperitoneal) in CD2F1 (CDF1) mice
Details: higher = longer survival
How it was run: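 Compound-dosed mice with transplantable tumor versus matched vehicle controls; endpoint ratio T/C reported.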

[1] = endpoint: mean survival time, dose: 100.0 mg/kg/injection, schedule: Q01DX001 (ip), vehicle: saline with Tween-80
[2] = endpoint: mean survival time, dose: 100.0 mg/kg/injection, schedule: Q01DX009 (ip), vehicle: saline with Tween-80
[3] = endpoint: mean survival time, dose: 100.0 mg/kg/injection, schedule: Q04DX003 (ip), vehicle: saline with Tween-80
[4] = endpoint: mean survival time, dose: 200.0 mg/kg/injection, schedule: Q01DX001 (ip), vehicle: saline with Tween-80
[5] = endpoint: mean survival time, dose: 200.0 mg/kg/injection, schedule: Q01DX009 (ip), vehicle: saline with Tween-80
[6] = endpoint: mean survival time, dose: 200.0 mg/kg/injection, schedule: Q04DX003 (ip), vehicle: saline with Tween-80
[7] = endpoint: mean survival time, dose: 400.0 mg/kg/injection, schedule: Q01DX001 (ip), vehicle: saline with Tween-80
[8] = endpoint: mean survival time, dose: 400.0 mg/kg/injection, schedule: Q01DX009 (ip), vehicle: saline with Tween-80
[9] = endpoint: mean survival time, dose: 400.0 mg/kg/injection, schedule: Q04DX003 (ip), vehicle: saline with Tween-80
[10] = endpoint: mean survival time, dose: 12.5 mg/kg/injection, schedule: Q01DX009 (ip), vehicle: saline with Tween-80
[11] = endpoint: mean survival time, dose: 50.0 mg/kg/injection, schedule: Q01DX009 (ip), vehicle: saline with Tween-80

Clc1nc(Oc2ccccc2)nc(-c2cn(-c3ccccc3)c3ccccc23)n1
T/C [1]: 98 % of control | T/C [2]: 95 % of control | T/C [3]: 102 % of control | T/C [4]: 102 % of control | T/C [5]: 101 % of control | T/C [6]: 98 % of control | T/C [7]: 102 % of control | T/C [8]: 97 % of control | T/C [9]: 101 % of control

Cc1cc(NCCN(C(C)C)C(C)C)nc(Nc2nc3ccc(Cl)cc3[nH]2)n1
T/C (endpoint: mean survival time, dose: 0.75 mg/kg/injection, schedule: Q01DX009 (ip), vehicle: saline with Tween-80): 103 % of control | T/C (endpoint: mean survival time, dose: 1.5 mg/kg/injection, schedule: Q01DX009 (ip), vehicle: saline with Tween-80): 90 % of control | T/C (endpoint: mean survival time, dose: 3.0 mg/kg/injection, schedule: Q01DX009 (ip), vehicle: saline with Tween-80): 106 % of control | T/C (endpoint: mean survival time, dose: 6.25 mg/kg/injection, schedule: Q01DX009 (ip), vehicle: saline with Tween-80): 92 % of control | T/C [10]: 92 % of control | T/C [1]: 96 % of control | T/C [4]: 96 % of control | T/C [7]: 98 % of control

CC(C)=CCNc1ncnc2c1ncn2C1OC(CO)C(O)C1O (stereo not drawn)
T/C [2]: 95 % of control | T/C [3]: 91 % of control | T/C [6]: 101 % of control | T/C [9]: 100 % of control

S=C(S)NCCNC(=S)S
T/C (endpoint: mean survival time, dose: 100.0 mg/kg/injection, schedule: Q01DX009 (ip), vehicle: saline): 102 % of control | T/C (endpoint: mean survival time, dose: 200.0 mg/kg/injection, schedule: Q01DX009 (ip), vehicle: saline): 100 % of control | T/C (endpoint: mean survival time, dose: 400.0 mg/kg/injection, schedule: Q01DX009 (ip), vehicle: saline): 90 % of control

Cc1ccc(S(=O)(=O)NC(=O)O/N=C/c2ccccn2)cc1
T/C [2]: 100 % of control | T/C [5]: 91 % of control | T/C [8]: 100 % of control

Cc1c([O-])[n+](Cc2ccccc2)nn1C
T/C (endpoint: mean survival time, dose: 12.5 mg/kg/injection, schedule: Q01DX009 (ip), vehicle: water): 97 % of control | T/C (endpoint: mean survival time, dose: 25.0 mg/kg/injection, schedule: Q01DX009 (ip), vehicle: water): 98 % of control | T/C (endpoint: mean survival time, dose: 50.0 mg/kg/injection, schedule: Q01DX009 (ip), vehicle: water): 95 % of control | T/C (endpoint: mean survival time, dose: 100.0 mg/kg/injection, schedule: Q01DX009 (ip), vehicle: water): 97 % of control | T/C (endpoint: mean survival time, dose: 200.0 mg/kg/injection, schedule: Q01DX009 (ip), vehicle: water): 93 % of control

CC(=O)OCC1OC(N(C(C)=O)c2nc(Cl)c3cc[nH]c3n2)C(OC(C)=O)C1OC(C)=O (stereo not drawn)
T/C (endpoint: mean survival time, dose: 12.5 mg/kg/injection, schedule: Q01DX005 (ip), vehicle: water): 104 % of control | T/C (endpoint: mean survival time, dose: 25.0 mg/kg/injection, schedule: Q01DX005 (ip), vehicle: water): 101 % of control | T/C (endpoint: mean survival time, dose: 50.0 mg/kg/injection, schedule: Q01DX005 (ip), vehicle: water): 98 % of control | T/C (endpoint: mean survival time, dose: 100.0 mg/kg/injection, schedule: Q01DX005 (ip), vehicle: water): 102 % of control | T/C (endpoint: mean survival time, dose: 200.0 mg/kg/injection, schedule: Q01DX005 (ip), vehicle: water): 106 % of control

COc1ccc(Cc2cncc3cc(OC)c(OC)cc23)cc1OC
T/C (endpoint: mean survival time, dose: 100.0 mg/kg/injection, schedule: Q01DX001 (ip), vehicle: saline): 101 % of control | T/C (endpoint: mean survival time, dose: 200.0 mg/kg/injection, schedule: Q01DX001 (ip), vehicle: saline): 96 % of control

O=C1CSC(=S)N1/N=C/c1cc(Cl)cc(Cl)c1O
T/C (endpoint: mean survival time, dose: 75.0 mg/kg/injection, schedule: Q01DX001 (ip), vehicle: other): 90 % of control | T/C (endpoint: mean survival time, dose: 150.0 mg/kg/injection, schedule: Q01DX001 (ip), vehicle: other): 102 % of control

CNC(=S)N(C1CCCCC1)C1CCCCC1
T/C [3]: 111 % of control | T/C [6]: 96 % of control | T/C [9]: 94 % of control

CCOC(=O)C(Cc1c[nH]c2ccccc12)(NC(C)=O)C(=O)OCC
T/C [3]: 98 % of control | T/C [6]: 96 % of control | T/C [9]: 104 % of control

COc1cc2c(c(OC)c1OC)-c1ccc(SC)c(=O)cc1[C@@H](NC(=O)CCl)CC2
T/C (endpoint: mean survival time, dose: 0.05 mg/kg/injection, schedule: Q01DX009 (ip), vehicle: water): 108 % of control | T/C (endpoint: mean survival time, dose: 0.1 mg/kg/injection, schedule: Q01DX009 (ip), vehicle: water): 106 % of control | T/C (endpoint: mean survival time, dose: 0.2 mg/kg/injection, schedule: Q01DX009 (ip), vehicle: water): 115 % of control | T/C (endpoint: mean survival time, dose: 0.4 mg/kg/injection, schedule: Q01DX009 (ip), vehicle: water): 108 % of control and 111 % of control | T/C (endpoint: mean survival time, dose: 0.8 mg/kg/injection, schedule: Q01DX009 (ip), vehicle: water): 120 % of control and 108 % of control

CC1CC(=O)C=C(O)C1 (stereo not drawn)
T/C [3]: 93 % of control | T/C [6]: 93 % of control | T/C [9]: 93 % of control

C=Cc1ccc(C(N)=O)cc1
T/C [3]: 101 % of control | T/C [6]: 98 % of control | T/C [9]: 96 % of control

O=C(O)c1ccccc1S(=O)(=O)c1ccccc1
T/C [3]: 93 % of control | T/C [6]: 88 % of control | T/C [9]: 95 % of control

O=S(=O)(Cl)c1cccc2c(S(=O)(=O)Cl)cccc12
T/C (endpoint: mean survival time, dose: 20.0 mg/kg/injection, schedule: Q04DX003 (ip), vehicle: Klucel (hydroxypropylcellulose) (HPC)): 102 % of control | T/C (endpoint: mean survival time, dose: 40.0 mg/kg/injection, schedule: Q04DX003 (ip), vehicle: Klucel (hydroxypropylcellulose) (HPC)): 104 % of control | T/C (endpoint: mean survival time, dose: 80.0 mg/kg/injection, schedule: Q04DX003 (ip), vehicle: Klucel (hydroxypropylcellulose) (HPC)): 95 % of control | T/C (endpoint: mean survival time, dose: 200.0 mg/kg/injection, schedule: Q04DX003 (ip), vehicle: Klucel (hydroxypropylcellulose) (HPC)): 109 % of control | T/C (endpoint: mean survival time, dose: 400.0 mg/kg/injection, schedule: Q04DX003 (ip), vehicle: Klucel (hydroxypropylcellulose) (HPC)): 122 % of control

Nc1nc(N)nc(-c2ccncc2)n1
T/C [10]: 102 % of control | T/C (endpoint: mean survival time, dose: 25.0 mg/kg/injection, schedule: Q01DX009 (ip), vehicle: saline with Tween-80): 106 % of control | T/C [11]: 102 % of control

COc1ccc(NC(=O)NCc2cccc(Cl)c2)cc1
T/C (endpoint: mean survival time, dose: 50.0 mg/kg/injection, schedule: Q01DX009 (ip), vehicle: Klucel (hydroxypropylcellulose) (HPC)): 102 % of control | T/C (endpoint: mean survival time, dose: 100.0 mg/kg/injection, schedule: Q01DX009 (ip), vehicle: Klucel (hydroxypropylcellulose) (HPC)): 114 % of control | T/C (endpoint: mean survival time, dose: 200.0 mg/kg/injection, schedule: Q01DX009 (ip), vehicle: Klucel (hydroxypropylcellulose) (HPC)): 117 % of control

C[N+](C)(C)CC(O)c1ccccc1 (stereo not drawn)
T/C [11]: 100 % of control | T/C [2]: 105 % of control | T/C [3]: 95 % of control | T/C [6]: 87 % of control

COC(=O)CCC(=O)c1cccc(C)c1
T/C (endpoint: mean survival time, dose: 200.0 mg/kg/injection, schedule: Q04DX003 (ip), vehicle: acetone): 91 % of control | T/C (endpoint: mean survival time, dose: 400.0 mg/kg/injection, schedule: Q04DX003 (ip), vehicle: acetone): 89 % of control

CN(C)CCCN(C)CCCN(C)C
T/C (endpoint: mean survival time, dose: 75.0 mg/kg/injection, schedule: Q01DX001 (ip), vehicle: saline): 104 % of control | T/C (endpoint: mean survival time, dose: 150.0 mg/kg/injection, schedule: Q01DX001 (ip), vehicle: saline): 103 % of control

CCC1=C[C@H]2CN(CCc3c([nH]c4ccccc34)[C@@](C(=O)OC)(c3cc4c(cc3OC)N(C)[C@H]3[C@@](O)(C(=O)OC)[C@H](OC(C)=O)[C@]5(CC)C=CCN6CC[C@]43[C@@H]65)C2)C1
T/C (endpoint: mean survival time, dose: 0.25 mg/kg/injection, schedule: Q01DX009 (ip), vehicle: water): 102 % of control | T/C (endpoint: mean survival time, dose: 2.0 mg/kg/injection, schedule: Q01DX009 (ip), vehicle: water): 161 % of control | T/C (endpoint: mean survival time, dose: 4.0 mg/kg/injection, schedule: Q01DX009 (ip), vehicle: water): 91 % of control | T/C (endpoint: median survival time, dose: 0.5 mg/kg/injection, schedule: Q01DX009 (ip), vehicle: water): 115 % of control

C[C@]12CCC(=O)C=C1CC[C@@H]1[C@@H]2[C@@H](O)C[C@@]2(C)[C@H]1CC[C@]2(O)C(=O)COP(=O)(O)OCC1OC(n2ccc(N)nc2=O)C(O)C1O (stereo partly drawn)
T/C (endpoint: mean survival time, dose: 5.0 mg/kg/injection, schedule: Q01DX005 (ip), vehicle: other): 104 % of control | T/C (endpoint: mean survival time, dose: 10.0 mg/kg/injection, schedule: Q01DX005 (ip), vehicle: other): 110 % of control | T/C (endpoint: mean survival time, dose: 15.0 mg/kg/injection, schedule: Q01DX005 (ip), vehicle: other): 115 % of control | T/C (endpoint: mean survival time, dose: 120.0 mg/kg/injection, schedule: Q01DX005 (ip), vehicle: other): 150 % of control | T/C (endpoint: mean survival time, dose: 240.0 mg/kg/injection, schedule: Q01DX005 (ip), vehicle: other): 162 % of control

O=[N+]([O-])c1ccc(/C=C/C=C/c2ccc(Cl)c(S(=O)(=O)F)c2)c(Cl)c1
T/C [2]: 97 % of control | T/C [3]: 102 % of control | T/C [5]: 103 % of control | T/C [6]: 102 % of control | T/C [8]: 106 % of control | T/C [9]: 102 % of control

CCCCCC(C)O[Si](C)OCC (stereo not drawn)
T/C (endpoint: mean survival time, dose: 100.0 mg/kg/injection, schedule: Q04DX003 (ip), vehicle: saline): 96 % of control | T/C (endpoint: mean survival time, dose: 200.0 mg/kg/injection, schedule: Q04DX003 (ip), vehicle: saline): 106 % of control | T/C (endpoint: mean survival time, dose: 400.0 mg/kg/injection, schedule: Q04DX003 (ip), vehicle: saline): 108 % of control
